Assay: passive permeability, PAMPA, ADME assay (AID 1508612)
Settings: pH 7.4, 30.0 min, 50.0 µM

Nc1ccc(CNc2ccc([S+](=O)([O-])Nc3nccs3)cc2)c(O)c1
Papp: < 1 ×10⁻⁶ cm/s

NC(=O)C1CCN(c2ncc(-c3cccc(N4CCCCC4)c3)s2)CC1
Papp: 924 ×10⁻⁶ cm/s

CCN1CCCC1CNC(=O)c1cc(S(=O)(=O)CC)c(N)cc1OC (configuration not stated)
Papp: < 1 ×10⁻⁶ cm/s

CCN(CC)CCCCNc1ncc2cc(-c3c(Cl)cccc3Cl)c(NC(=O)NC(C)(C)C)nc2n1
Papp: > 1000 ×10⁻⁶ cm/s

COc1ccc(NC(=O)c2[nH]c(C)c(C(C)=O)c2C)cc1
Papp: 377 ×10⁻⁶ cm/s

FC(F)(F)c1ccccc1-c1nc(NCc2cccs2)c2ccccc2n1
Papp: > 1000 ×10⁻⁶ cm/s

CCOc1ccc(CCNC(=O)c2cc3sccc3n2CCN2CCN(C)CC2)cc1OCC
Papp: > 1000 ×10⁻⁶ cm/s

Nc1nc2c(s1)C(c1cccc(Cl)c1Cl)CC(=O)N2 (configuration not stated)
Papp: 505 ×10⁻⁶ cm/s

O=c1c(-c2ccc(O)cc2)coc2cc(O)ccc12
Papp: < 1 ×10⁻⁶ cm/s

O=C(Nc1ncc(Cc2ccc(C(F)(F)F)cc2)s1)c1cnc(-c2ccccc2)[nH]1
Papp: < 1 ×10⁻⁶ cm/s

COc1ccc(OC)c(-c2cc(C(=O)N3CCN(c4ncccn4)CC3)c3ccccc3n2)c1
Papp: > 1000 ×10⁻⁶ cm/s

Cc1ccc(S(=O)(=O)Nc2cc(C(=O)Nc3nc(-c4ccccc4)cs3)ccn2)cc1
Papp: 259 ×10⁻⁶ cm/s

Cc1ccc(-c2cc(C(=O)NCc3ccc(S(N)(=O)=O)cc3)c3ccccc3n2)cc1C
Papp: 71 ×10⁻⁶ cm/s

CCN1C(=O)c2ccccc2S(=O)c2ccc(NC(=O)Cc3ccc(OC)cc3)cc21 (configuration not stated)
Papp: > 1000 ×10⁻⁶ cm/s

CCOc1ccc(CCNC(=O)c2cc3ccncc3n2Cc2cccc(C)c2)cc1OCC
Papp: 20.6 ×10⁻⁶ cm/s

O=C(NC1CCCN(c2cc(-c3ccc(F)cc3)[nH]n2)C1)c1ccc2ncccc2c1 (configuration not stated)
Papp: 61.8 ×10⁻⁶ cm/s

COc1ccc(NC(=O)c2ccc[nH]2)cc1S(=O)(=O)Nc1ccc(Br)cc1
Papp: > 1000 ×10⁻⁶ cm/s

CC[C@H]1CN2CCC3CC(OC)C(OC)CC3[C@@H]2C[C@@H]1C[C@H]1NCCC2=C1CC(OC)=C(O)C2 (some centres not stated)
Papp: 153 ×10⁻⁶ cm/s

CC(=O)N1CCc2c(sc3c2c(=O)n(-c2ccccc2Cl)c(=O)n3Cc2cccc(C)c2)C1
Papp: 338 ×10⁻⁶ cm/s

Cc1cc(C)cc(NS(=O)(=O)c2ccc3[nH]cc(C(=O)NCc4ccco4)c(=O)c3c2)c1
Papp: 9.3 ×10⁻⁶ cm/s

CC1=C(C(=O)Nc2nncs2)C2(CCCC2)N=C(Nc2nc3ccccc3o2)N1
Papp: < 1 ×10⁻⁶ cm/s

Cc1cc(C)cc(C(=O)Nc2ccc3c(N4CCCC4)ncnc3c2)c1
Papp: > 1000 ×10⁻⁶ cm/s

COc1ccc(CNC(=O)c2sc3nc(C)cc(C)c3c2N)cc1
Papp: > 1000 ×10⁻⁶ cm/s

O=C(Nc1nc(-c2ccc(F)cc2)cs1)c1ccncc1NS(=O)(=O)c1ccccc1Cl
Papp: > 1000 ×10⁻⁶ cm/s

NC(=O)C1CCN(c2nc(-c3ccc([N+](=O)[O-])cc3)cs2)CC1
Papp: 604 ×10⁻⁶ cm/s

O=C(CCc1ccccc1)Nc1ccc(S(=O)(=O)Nc2nccs2)cc1
Papp: 9.34 ×10⁻⁶ cm/s

COc1ccccc1CNC(=O)CCCn1nc(C)c2c(C)n(-c3ccc(C)cc3)nc2c1=O
Papp: 604 ×10⁻⁶ cm/s

COc1ccc(C2Nc3ccccc3C(=O)N2Cc2ccco2)cc1 (configuration not stated)
Papp: 799 ×10⁻⁶ cm/s

c1ccc(Nc2nc(NCc3ccco3)c3ccccc3n2)cc1
Papp: 930 ×10⁻⁶ cm/s

CCCN(CCC)CCc1cccc2c1CC(=O)N2
Papp: 179 ×10⁻⁶ cm/s

CC(=O)Nc1ccc(CN2CCc3nc(C(C)C)nc(-c4ccc(Cl)cc4)c3CC2)cc1
Papp: > 1000 ×10⁻⁶ cm/s

CCOP(=O)(Cc1ccc(C(=O)Nc2ccc(Br)cc2C#N)cc1)OCC
Papp: 255 ×10⁻⁶ cm/s

NC(=O)C1CCN(c2nc(-c3cccnc3)cs2)CC1
Papp: 23.2 ×10⁻⁶ cm/s

COc1ccc(OC)c(Nc2c3c(nc4ccccc24)CCC3)c1
Papp: > 1000 ×10⁻⁶ cm/s

COc1cccc(CNc2ccc(S(=O)(=O)Nc3ccc(N4CCNCC4)cc3)cc2)c1O
Papp: > 1000 ×10⁻⁶ cm/s

Cc1nn(CCc2nc(-c3ccccc3)cs2)c2[nH]c(=O)cc(C(F)(F)F)c12
Papp: 426 ×10⁻⁶ cm/s

CN1CCN(c2ccc(-c3cccc(CN4CCOCC4)c3)cc2NC(=O)c2c[nH]c(=O)cc2C(F)(F)F)CC1
Papp: 3.88 ×10⁻⁶ cm/s

c1coc(-c2nc3ccncc3[nH]2)c1
Papp: 27.9 ×10⁻⁶ cm/s

O=C1Nc2ccccc2/C1=C/c1cccc(C(=O)O)c1
Papp: 1.2 ×10⁻⁶ cm/s

Cc1ccc(S(=O)(=O)n2cc(C(=O)Nc3nc(-c4ccccc4)cs3)c3ccccc32)cc1
Papp: 3.4 ×10⁻⁶ cm/s

O=C(NCc1ccc(N2CCCC2)nc1)c1cc(Cl)ccc1O
Papp: > 1000 ×10⁻⁶ cm/s

Cc1ccc(S(=O)(=O)Nc2cnccc2C(=O)Nc2nc(-c3ccccc3Cl)cs2)cc1
Papp: 46 ×10⁻⁶ cm/s

COCCNc1ncc(-c2cccc(O)c2)c2c1OCC2
Papp: 412 ×10⁻⁶ cm/s

FC(F)(F)Oc1cccc(Nc2nc(-c3ccncc3)nc3ccccc23)c1
Papp: 226 ×10⁻⁶ cm/s

O=C(Nc1nc(-c2ccccc2)cs1)c1ccccc1-n1cnnn1
Papp: < 1 ×10⁻⁶ cm/s

COc1cccc(CNCc2cccn2-c2nnc(N3CCN(c4ccccc4)CC3)s2)c1
Papp: > 1000 ×10⁻⁶ cm/s

Cn1c(=O)cc(C(=O)NC2CCCc3c2[nH]c2c(Cl)cccc32)c2ccccc21 (configuration not stated)
Papp: 68 ×10⁻⁶ cm/s

Cc1c(C(=O)OCCOc2ccccc2)[nH]c2c1C(=O)CC(c1ccccc1)C2 (configuration not stated)
Papp: 276 ×10⁻⁶ cm/s

O=C(Nc1ccc2oc(-c3cccnc3)nc2c1)c1ccc(-c2ccccc2)o1
Papp: 771 ×10⁻⁶ cm/s

O=S(=O)(Nc1nccs1)c1ccc(NCc2cccc3cc[nH]c23)cc1
Papp: 2.4 ×10⁻⁶ cm/s

OCCNc1ncnc2c1ncn2[C@@H]1O[C@@H](CO)[C@H](O)[C@@H]1O
Papp: < 1 ×10⁻⁶ cm/s

O=S(=O)(Nc1cccc2ccncc12)c1ccc(NCc2cccc(Cl)c2O)cc1
Papp: > 1000 ×10⁻⁶ cm/s

CC1=C(C(=O)Nc2nnc(-c3ccccc3)s2)C(c2nn(C)cc2Cl)N=C(Nc2nc3ccccc3o2)N1 (configuration not stated)
Papp: 23.1 ×10⁻⁶ cm/s

NC(=O)C1CCN(c2nc(-c3ccccc3Cl)cs2)CC1
Papp: 517 ×10⁻⁶ cm/s

FC(F)(F)c1ccccc1-c1nc(NCc2ccc(-c3cccnc3)cc2)c2ccccc2n1
Papp: 786 ×10⁻⁶ cm/s

CC(=O)c1c(C)c(C(=O)Nc2cccc([S+](=O)([O-])N3CCCCCC3)c2)n(C)c1C
Papp: > 1000 ×10⁻⁶ cm/s

CC(=O)NCCNC(=O)c1ccc(-c2ncc3cnc(-c4cccc(F)c4)cn23)cc1
Papp: 40.6 ×10⁻⁶ cm/s

Cc1nc2ccc(NC(=O)c3cc(S(=O)(=O)N(C)c4ccccc4)ccc3Cl)cc2s1
Papp: 70 ×10⁻⁶ cm/s

O=C(CCCN1CCC(O)(c2cccc(C(F)(F)F)c2)CC1)c1ccc(F)cc1
Papp: > 1000 ×10⁻⁶ cm/s

Cc1sc2c(c1C)C(c1ccc(Cl)cc1)=N[C@@H](CC(=O)Nc1ccc(OCCOCCOCCOCCNc3cccc4c3C(=O)N(C3CCC(=O)NC3=O)C4=O)cc1)c1nnc(C)n1-2 (some centres not stated)
Papp: 4.9 ×10⁻⁶ cm/s

NC(=O)C1CCN(c2nc(-c3cccc(C(F)(F)F)c3)cs2)CC1
Papp: 566 ×10⁻⁶ cm/s

COc1cc(/C=C(\C#N)c2nc3ccccc3[nH]2)ccc1OCc1ccc(F)cc1
Papp: 641 ×10⁻⁶ cm/s

CC(C)(C)c1ccc(C(=O)Nc2cn3cc(-n4ccnc4)ccc3n2)cc1
Papp: 952 ×10⁻⁶ cm/s

O=[S+]([O-])(Nc1nccs1)c1ccc(NCc2cccc(Cl)c2)cc1
Papp: 395 ×10⁻⁶ cm/s

CC(C)Oc1cccc(-c2ccnc(N3CCC(C(N)=O)CC3)n2)c1
Papp: > 1000 ×10⁻⁶ cm/s

Cc1ccc(Cl)cc1NS(=O)(=O)c1cc2c(cc1F)NC(=O)CC2
Papp: 581 ×10⁻⁶ cm/s

O=[S+]([O-])(Nc1nccs1)c1ccc(NCc2cccc3c2NCC3)cc1
Papp: 18.9 ×10⁻⁶ cm/s

Cc1cccc(-c2noc([C@@H]3Cc4nc[nH]c4CN3)n2)c1
Papp: 343 ×10⁻⁶ cm/s

Cc1c(Cl)cccc1-n1ncc(C(=O)Nc2ccc(Br)cc2F)c1C1CCNCC1
Papp: > 1000 ×10⁻⁶ cm/s

CCCC1=Nc2cc(C(=O)NC3CCCCC3)ccc2Sc2ccc(C)cc21
Papp: 17.1 ×10⁻⁶ cm/s

CC(=O)NCc1ccc(-c2csc(Nc3cc(C)cc(C)c3)n2)o1
Papp: > 1000 ×10⁻⁶ cm/s

CN(C)c1cccc(-c2ccnc(N3CCC(C(N)=O)CC3)n2)c1
Papp: 333 ×10⁻⁶ cm/s

O=C1Nc2ccccc2/C1=C\c1cc(Br)c(O)c(Br)c1
Papp: 50.5 ×10⁻⁶ cm/s

O=C(c1ccncc1)N1CCC2(CCCN(C(c3ccccc3)c3ccccc3)C2)CC1
Papp: > 1000 ×10⁻⁶ cm/s

COc1ccc(NC(=O)c2[nH]c(C)c(C(C)=O)c2C)cc1S(=O)(=O)Nc1cccc(C#N)c1
Papp: 30.9 ×10⁻⁶ cm/s

Cc1ccc(S(=O)(=O)Nc2cnccc2C(=O)Nc2ccc(N3CCOCC3)cc2)cc1
Papp: 53.3 ×10⁻⁶ cm/s

O=C(O)c1ccnc2cc(-c3nc4ccccc4n3CCN3CCCCC3)sc12
Papp: 4 ×10⁻⁶ cm/s

CCOc1ccccc1C(=O)Nc1ccncc1C(=O)Nc1cccc(S(=O)(=O)C(F)(F)F)c1
Papp: 99.5 ×10⁻⁶ cm/s

CC(C)COc1ccc(-c2csc(N3CCC(C(N)=O)CC3)n2)cc1
Papp: 48.4 ×10⁻⁶ cm/s

CC(C)Oc1cccc(-c2csc(N3CCC(C(N)=O)CC3)n2)c1
Papp: > 1000 ×10⁻⁶ cm/s

Cc1ccccc1N(C)C1CN([S+](=O)([O-])c2cccc(C(F)(F)F)c2)C1
Papp: 991 ×10⁻⁶ cm/s

C[C@@]1(c2ncncc2F)NC(=O)c2cc(-c3cn[nH]c3)ccc21
Papp: 52.1 ×10⁻⁶ cm/s

COc1cc2nccc(Oc3ccc(NC(=O)C4(C(=O)Nc5ccc(F)cc5)CC4)cc3)c2cc1OC
Papp: 507 ×10⁻⁶ cm/s

Nc1nc2c(s1)C(c1ccc(Br)cc1)CC(=O)N2 (configuration not stated)
Papp: 297 ×10⁻⁶ cm/s

CCCN1CNc2c(c(=O)[nH]c(=S)n2CCc2cccc(Cl)c2Cl)C1
Papp: > 1000 ×10⁻⁶ cm/s

NC1CCN(c2nc(-c3ccc(Br)cc3)cs2)CC1
Papp: > 1000 ×10⁻⁶ cm/s

O=C(NCCCc1ccccc1)C1CCN(c2nc(-c3ccc(Br)cc3)cs2)CC1
Papp: 18 ×10⁻⁶ cm/s

C=C1C(=O)O[C@@H]2[C@H]3O[C@]3(C)CC/C=C(\C)CC[C@@H]12
Papp: > 1000 ×10⁻⁶ cm/s

CCNC(=O)c1noc(-c2cc(C(C)C)c(O)cc2O)c1-c1ccc(CN2CCOCC2)cc1
Papp: 335 ×10⁻⁶ cm/s

C[C@]12CC[C@@H]3[C@H](CCC4=CC(=O)CC[C@]43C)[C@]1(O)CC[C@@]2(O)C(=O)CO
Papp: 30.8 ×10⁻⁶ cm/s

O=C(c1ccc2c(c1)ncn2-c1ccc(C(F)(F)F)cc1)N1CCCCC1
Papp: > 1000 ×10⁻⁶ cm/s

Cc1cc(NS(=O)(=O)c2ccc(NC(=O)c3oc4ccccc4c3C)cc2)nc(C)n1
Papp: 282 ×10⁻⁶ cm/s

Cc1cccc2c1NC(=O)/C2=C/c1cc(Cl)c(O)c(Cl)c1
Papp: 66.3 ×10⁻⁶ cm/s

O=C(Nc1ccc2c(N3CCCCC3)ncnc2c1)c1cc(F)cc(F)c1
Papp: > 1000 ×10⁻⁶ cm/s

CCOC(=O)c1nn(-c2ccc(OC)cc2)c(=O)c2c(N)scc12
Papp: 187 ×10⁻⁶ cm/s

CC[C@H](NC(=O)[C@H](C)NC)C(=O)N1C[C@@H](O)C[C@H]1Cc1c(-c2[nH]c3cc(F)ccc3c2C[C@H]2C[C@H](O)CN2C(=O)[C@H](CC)NC(=O)[C@H](C)NC)[nH]c2cc(F)ccc12
Papp: < 1 ×10⁻⁶ cm/s

COc1ccc(NC(=O)c2cccnc2)cc1S(=O)(=O)Nc1ccc(Br)cc1
Papp: 514 ×10⁻⁶ cm/s

O=C1C2=C(Nc3ccccc3SC2c2ccco2)c2ccccc21 (configuration not stated)
Papp: 371 ×10⁻⁶ cm/s

Cc1cc(C)nc(NC(=S)N2CCN(c3cccc(C(F)(F)F)n3)CC2)c1
Papp: 589 ×10⁻⁶ cm/s

O=C(Nc1cccc(C(F)(F)F)c1)c1ccccc1NC(=O)C1CCCCC1
Papp: < 1 ×10⁻⁶ cm/s

O=C(Nc1nc(-c2ccccc2)cs1)c1ccncc1NS(=O)(=O)c1ccc(F)cc1
Papp: 748 ×10⁻⁶ cm/s

COC(=O)c1cc(Cl)ccc1NC(=O)CSc1ncc(S(=O)(=O)c2ccc(Br)cc2)c(=O)[nH]1
Papp: 68.7 ×10⁻⁶ cm/s

Reference: PubChem BioAssay AID1508612
